In one data set the test system is U-251. Description: Antiproliferative activity against human U-251 assessed as cell viability incubated for 48 hrs by MTT assay. As to conditions: U-251, 48 h. Format: functional, cell-based. A general note: Formazan colour is commonly taken as a measure of viable cells.
For data set [1], the system named is U-87 MG. The data set can be described thus: Antiproliferative activity against human U-87 MG assessed as cell viability incubated for 48 hrs by MTT assay. Format: functional, cell-based, U-87MG ATCC.
The target of data set [2] is T1, Focal adhesion kinase 1 (Homo sapiens, UniProt Q05397). Description: Inhibition of FAK (unknown origin) at 50 nM relative to control.
Target sequence in this assay (Q05397 2-1052 limits assumed): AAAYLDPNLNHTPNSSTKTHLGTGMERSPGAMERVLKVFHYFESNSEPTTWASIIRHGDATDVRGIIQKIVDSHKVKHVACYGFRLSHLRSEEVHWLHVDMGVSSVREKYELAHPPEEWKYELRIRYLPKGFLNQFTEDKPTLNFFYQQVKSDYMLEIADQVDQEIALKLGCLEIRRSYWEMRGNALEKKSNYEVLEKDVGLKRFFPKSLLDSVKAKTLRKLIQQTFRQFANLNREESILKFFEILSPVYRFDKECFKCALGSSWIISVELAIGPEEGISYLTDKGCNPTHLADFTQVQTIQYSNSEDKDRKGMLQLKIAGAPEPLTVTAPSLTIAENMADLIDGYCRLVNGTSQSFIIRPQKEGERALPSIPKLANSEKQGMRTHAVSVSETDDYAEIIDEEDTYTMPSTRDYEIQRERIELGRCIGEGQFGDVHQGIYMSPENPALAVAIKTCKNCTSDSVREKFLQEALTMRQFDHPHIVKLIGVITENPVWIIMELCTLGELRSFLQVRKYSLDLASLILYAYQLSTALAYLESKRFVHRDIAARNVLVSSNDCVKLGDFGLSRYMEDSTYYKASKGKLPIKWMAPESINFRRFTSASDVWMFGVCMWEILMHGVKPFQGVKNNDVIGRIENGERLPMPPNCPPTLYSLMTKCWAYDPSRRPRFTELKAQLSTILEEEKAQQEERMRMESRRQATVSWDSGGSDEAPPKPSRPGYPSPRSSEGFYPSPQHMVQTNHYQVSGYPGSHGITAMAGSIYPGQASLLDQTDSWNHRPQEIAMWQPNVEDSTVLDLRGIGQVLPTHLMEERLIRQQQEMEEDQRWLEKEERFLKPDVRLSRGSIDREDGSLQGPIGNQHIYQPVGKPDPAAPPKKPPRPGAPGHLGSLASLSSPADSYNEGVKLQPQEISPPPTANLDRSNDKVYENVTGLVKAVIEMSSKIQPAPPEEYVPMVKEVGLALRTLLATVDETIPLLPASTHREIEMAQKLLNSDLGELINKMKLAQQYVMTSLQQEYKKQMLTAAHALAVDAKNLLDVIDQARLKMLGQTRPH
The target in data set [3] is T1, Focal adhesion kinase 1. The data set can be described thus: Inhibition of FAK (unknown origin) at 10 nM relative to control.
Target sequence in this assay (Q05397 2-1052 limits assumed): as above
The target of data set [4] is T1, Focal adhesion kinase 1. The data set can be described thus: Inhibition of FAK (unknown origin) preincubated for 10 mins followed by ATP and substrate addition and measured after 50 mins by HTRF analysis. (TR-FRET usually uses a lanthanide donor and a delayed reading to cut background.)
Target sequence in this assay (Q05397 whole entry): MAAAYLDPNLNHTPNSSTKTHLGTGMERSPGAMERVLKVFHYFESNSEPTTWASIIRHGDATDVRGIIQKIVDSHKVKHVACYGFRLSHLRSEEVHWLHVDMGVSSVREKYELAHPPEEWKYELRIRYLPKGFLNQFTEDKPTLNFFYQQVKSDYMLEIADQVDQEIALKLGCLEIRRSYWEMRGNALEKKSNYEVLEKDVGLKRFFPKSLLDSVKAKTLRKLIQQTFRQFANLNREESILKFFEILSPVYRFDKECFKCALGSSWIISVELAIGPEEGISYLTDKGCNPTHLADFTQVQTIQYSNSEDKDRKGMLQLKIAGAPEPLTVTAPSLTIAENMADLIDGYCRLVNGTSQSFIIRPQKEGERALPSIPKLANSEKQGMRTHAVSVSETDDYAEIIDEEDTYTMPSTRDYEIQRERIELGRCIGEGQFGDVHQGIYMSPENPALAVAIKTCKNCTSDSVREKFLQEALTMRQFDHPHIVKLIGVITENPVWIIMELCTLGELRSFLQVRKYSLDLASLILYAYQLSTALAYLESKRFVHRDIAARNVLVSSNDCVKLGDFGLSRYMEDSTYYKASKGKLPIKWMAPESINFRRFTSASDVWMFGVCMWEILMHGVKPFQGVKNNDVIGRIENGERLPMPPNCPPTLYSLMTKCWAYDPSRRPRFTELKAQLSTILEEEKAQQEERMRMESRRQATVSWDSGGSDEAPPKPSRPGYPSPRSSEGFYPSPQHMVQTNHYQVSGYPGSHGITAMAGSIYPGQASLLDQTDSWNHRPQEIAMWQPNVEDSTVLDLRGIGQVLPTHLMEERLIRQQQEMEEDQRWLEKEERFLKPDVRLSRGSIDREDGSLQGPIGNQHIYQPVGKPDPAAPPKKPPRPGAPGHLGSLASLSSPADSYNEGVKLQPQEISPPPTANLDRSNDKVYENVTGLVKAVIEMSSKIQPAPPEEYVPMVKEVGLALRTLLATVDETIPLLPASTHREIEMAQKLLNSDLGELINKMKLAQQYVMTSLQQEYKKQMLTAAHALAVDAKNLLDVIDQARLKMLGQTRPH
Data set [5] can be described thus: Cytotoxicity against human LO2 assessed as cell viability incubated for 48 hrs by MTT assay. Format: toxicity, cell-based, L02. As to conditions: LO2 cells.
The nature of data set [6]: Cytotoxicity against human 2BS assessed as cell viability incubated for 48 hrs by MTT assay. Format: toxicity, cell-based. To be noted: 2BS cells.
The nature of data set [7]: Distribution coefficient, logD of compound in n-Octanol/water at pH 7.4. Format: physicochemical.
The nature of data set [8]: Selectivity ratio of IC50 for cytotoxicity against human LO2 assessed as cell viability to IC50 for antiproliferative activity against human U-251 assessed as cell viability. Format: toxicity. As to conditions: LO2 cells versus U-251 cells, read-out: Ratio IC50.
Data set [9] is described as follows: Selectivity ratio of IC50 for cytotoxicity against human LO2 assessed as cell viability to IC50 for antiproliferative activity against human U-87 MG assessed as cell viability. Format: toxicity. To be noted: LO2 cells versus U-87 MG cells, read-out: Ratio IC50.
Data set [10] concerns U-87 MG. Description: Induction of DNA damage in human U-87 MG cells assessed as comet tail moment at 0.1 to 2 uM incubated for 2.5 to 3 hrs by comet assay. Format: functional. To be noted: U-87MG ATCC, time 2.5-3 hrs.
Data set [11] in a line: Effective permeability of compound at pH 7.4 incubated for 16 hrs by LCMS analysis. As to conditions: pH 7.4, 16 h. Format: ADME.

Active and inactive are the calls of the source. The rule behind the calls is not given here.

A word on the IC50: it is the concentration that gives 50% inhibition. One may read the inhibition as the percentage by which the read-out fell short of the control. A higher inhibition goes with a strong effect. By logD is commonly meant the decadic logarithm of the distribution of all forms, ionised or not, between an organic phase and buffer at a given pH.

As to `CNC(=O)c1ccccc1Nc1nc(Nc2ccc(N3CCNCC3)cc2)ncc1Cl`, the IC50 was 79 nM in the data set with U-251 and 36 nM in the data set with U-87 MG [1]. For the same compound, the figures for the inhibition at Focal adhesion kinase 1 [2] and against Focal adhesion kinase 1 [3] were 78.6% and 67.9%, respectively.
Taken in the same sequence, the figures for `CNC(=O)c1ccccc1Nc1nc(Nc2ccc(N3CCN(CCO)CC3)cc2)ncc1Cl` were 194 nM, 62 nM, 77.9% and 67.7%.
Taken in the same sequence, the figures for `CNC(=O)c1ccccc1Nc1nc(Nc2ccc(N3CCN(CCOC(=O)CCCc4ccc(N(CCCl)CCCl)cc4)CC3)cc2)ncc1Br` were 81 nM, 30 nM, 94.2% and 68.4%.
The like results for `CNC(=O)c1ccccc1Nc1nc(Nc2ccc(N3CCN(CCOC(=O)c4ccc(N(CCCl)CCCl)cc4)CC3)cc2)ncc1Cl` were, in that order, 1210 nM, 390 nM, 78.5% and 51.9%.
In the case of `CNC(=O)c1ccccc1Nc1nc(Nc2ccc(N3CCN(C)CC3)cc2)ncc1Cl`, the figures for the IC50 with U-251, in the data set on U-87 MG [1] and at Focal adhesion kinase 1 [4] were 64 nM, 17 nM and 3.2 nM, respectively. Moreover, the inhibition against Focal adhesion kinase 1 [2] is 80.2%; at Focal adhesion kinase 1 [3], 76.4%. Also, the IC50 at 48 h in [5] is 801 nM; in data set [6], 11600 nM. Moreover, the log distribution coefficient (logD) in data set [7] is 3.1. For the same compound, the selectivity ratio in [8] and in [9] was greater than 40 each time. Further, the result in the data set with U-87 MG [10] was inactive.
`O=C(O)CCCc1ccc(N(CCCl)CCCl)cc1` [CHLORAMBUCIL]: the concentration for half-maximal inhibition (IC50) with U-251 and in the data set on U-87 MG [1] was greater than 50000 nM in each case. The inhibition on Focal adhesion kinase 1 [2] stood at 8.54%; against Focal adhesion kinase 1 [3] it was 2.77%.
With `CNC(=O)c1ccccc1Nc1nc(Nc2ccc(N3CCN(C(=O)CCCc4ccc(N(CCCl)CCCl)cc4)CC3)cc2OC)ncc1Cl`, the IC50 in the data set on U-251 is greater than 50000 nM; with U-87 MG [1] it was 18000 nM. For the same compound, the inhibition on Focal adhesion kinase 1 [2] was 67.3%; against Focal adhesion kinase 1 [3] it was 32.2%.
`CNC(=O)c1ccccc1Nc1nc(Nc2ccc(N3CCN(CCOC(=O)CCCc4ccc(N(CCCl)CCCl)cc4)CC3)cc2)ncc1C`: the values for the IC50 in the data set with U-251 and in the data set with U-87 MG [1] were 168 nM and 42 nM, respectively. In addition, the values for the inhibition against Focal adhesion kinase 1 [2] and on Focal adhesion kinase 1 [3] were 97.5% and 65.8%, respectively.
Regarding `CNC(=O)c1ccccc1Nc1nc(Nc2ccc(N3CCN(CCOC(=O)CCCc4ccc(N(CCCl)CCCl)cc4)CC3)cc2)ncc1[N+](=O)[O-]`, the IC50 with U-251 worked out at 849 nM; with U-87 MG [1], 605 nM. Further, the inhibition stood at 75.4% at Focal adhesion kinase 1 [2] and 36.5% against Focal adhesion kinase 1 [3].
The like results for `CNC(=O)c1ccccc1Nc1nc(Nc2ccc(N3CCN(C(=O)c4ccc(N(CCCl)CCCl)cc4)CC3)cc2)ncc1Cl` were, in that order, 6260 nM, 1760 nM, 77.5% and 55.8%.
For `CNC(=O)c1ccccc1Nc1nc(Nc2ccc(C3CCN(C(=O)c4ccc(N(CCCl)CCCl)cc4)CC3)cc2)ncc1Cl`, the IC50 was greater than 50000 nM in the data set with U-251 and 39600 nM in the data set with U-87 MG [1]. Moreover, the inhibition at Focal adhesion kinase 1 [2] was 58.6%; on Focal adhesion kinase 1 [3] it was 34%.
Taken in the same sequence, the figures for `CNC(=O)c1ccccc1Nc1nc(Nc2ccc(C3CCN(C(=O)CCCc4ccc(N(CCCl)CCCl)cc4)CC3)cc2)ncc1Cl` were 18200 nM, 1400 nM, 67.5% and 56.4%.
Consider `CNC(=O)c1ccccc1Nc1nc(Nc2ccc(N3CCN(C(=O)c4ccc(N(CCCl)CCCl)cc4)CC3)cc2OC)ncc1Cl`, for which the IC50 in the data set on U-251 and with U-87 MG [1] was greater than 50000 nM in each case. Also, the values for the inhibition against Focal adhesion kinase 1 [2] and against Focal adhesion kinase 1 [3] were 64.6% and 26.2%, respectively.
For the compound `CNC(=O)c1ccccc1Nc1nc(Nc2ccc(N3CCN(CCOC(=O)c4ccc(N(CCCl)CCCl)cc4)CC3)cc2)ncc1C(F)(F)F`, the IC50 was 31 nM in the data set on U-251, 27 nM in the data set with U-87 MG [1] and 4.28 nM against Focal adhesion kinase 1 [4]. Further, the inhibition came to 96.4% against Focal adhesion kinase 1 [2] and 81.3% on Focal adhesion kinase 1 [3]. For the same compound, the concentration for half-maximal inhibition (IC50) at 48 h in data set [5] was 1210 nM; in data set [6], 24100 nM. The compound also gave a logD in data set [7] of 5.34. For the same compound, the Peff in [11] is 0.001 10^-6 cm/s. For the same compound, the selectivity ratio in [8] and in data set [9] was greater than 40 in each case.
Take `CNC(=O)c1ccccc1Nc1nc(Nc2ccc(N3CCN(C(=O)CCCc4ccc(N(CCCl)CCCl)cc4)CC3)cc2)ncc1Cl`: the half-maximal inhibitory concentration (IC50) with U-251 amounted to 3700 nM; in the data set on U-87 MG [1], 990 nM. Also, the inhibition amounted to 74.2% on Focal adhesion kinase 1 [2] and 55.4% against Focal adhesion kinase 1 [3].
Turning to `CNC(=O)c1ccccc1Nc1nc(Nc2ccc(N3CCN(CCOC(=O)CCCc4ccc(N(CCCl)CCCl)cc4)CC3)cc2)ncc1Cl`, the concentration for half-maximal inhibition (IC50) in the data set on U-251 is 485 nM; in the data set on U-87 MG [1] it was 95 nM. Also, the inhibition was determined as 94.5% against Focal adhesion kinase 1 [2] and 79.8% on Focal adhesion kinase 1 [3].

Values taken from ChEMBL document CHEMBL6153079, “Discovery of noncovalent diaminopyrimidine-based Inhibitors for glioblastoma via a dual FAK/DNA targeting strategy” (Eur J Med Chem, 2025).
